Observed percentage phytotoxicity data for four compounds are collected here from patent US20260182572A1, “HERBICIDAL COMPOSITIONS” (SYNGENTA CROP PROTECTION AG, priority 2022, published 2026).

Common to all, as to type: in vivo
Holding throughout (details): sprayed after 8 days, evaluated after 13 days

In one assay the test system is Lolium perenne (LOLPE). Kind of assay: Glasshouse post-emergence phytotoxicity test, Lolium perenne (LOLPE). Here is the method: (§1) Seeds of Amaranthus retroflexus (AMARE), Echinochloa crus-galli (ECHCG), Digitaria sanguinalis (DIGSA), Lolium perenne (LOLPE), Alopecurus myosuroides (ALOMY), Chenopodium album (CHEAL), and Ipomoea hederacea (IPOHE) were sown in standard sterilised soil in pots. After cultivation for 8 days under controlled conditions in a glasshouse (at 24/16° C., day/night; 14 hours light; 65% humidity), the plants were sprayed at 500 l/Ha with an aqueous spray solution derived from the formulation of the technical active ingredients in a small amount of acetone and a solvent and emulsifier mixture referred to as IF50 (11.12% Emulsogen EL360 TM+44.44% N-methylpyrrolidone+44.44% Dowanol DPM glycol ether), to create a 50 g/l solution which was then diluted using 0.2% Genapol XO80 (CAS Number: 9043-30-5) as diluent to give the desired final dose of test compound. Where active ingredients were applied as mixtures, aqueous spray solutions were prepared as above, containing both active ingredients. The test plants were then grown under controlled conditions in a glasshouse (at 24/16° C., day/night; 14 hours light; 65% humidity) and watered twice daily. After 13 days, the test was evaluated visually for percentage phytotoxicity to the plants (where 100=total damage to plant; 0=no damage to plant) when compared to control untreated plants. Two to four replicates were applied for each treatment in a randomised block test design.
(§2) 22., E=X+Y−(X*Y/100), where • X=average percent phytotoxicity of herbicide A when applied at a certain rate • Y=average percent phytotoxicity using herbicide B when applied at a certain rate • E=the expected effect of the mixture of herbicides A and B as calculated from the Colby formula.

The test system of assay [1] is Ipomoea hederacea (IPOHE). Kind of assay: Glasshouse post-emergence phytotoxicity test, Ipomoea hederacea (IPOHE). Here is the method: as §1, §2
Assay [2] has as its system Echinochloa crus-galli (ECHCG). Description: Glasshouse post-emergence phytotoxicity test, Echinochloa crus-galli (ECHCG). As to the method:
as §1, with “Where active ingredients were applied as mixtures, aqueous spray solutions were prepared as above, containing both active ingredients. The test plants were then grown under controlled conditions in a glasshouse (at 24/16° C., day/night; 14 hours light; 65% humidity) and watered twice daily.” left out, “Two to four replicates were applied for each treatment in a randomised block test design.” left out
as §2

Assay [3] concerns Alopecurus myosuroides (ALOMY). Description: Glasshouse post-emergence phytotoxicity test, Alopecurus myosuroides (ALOMY). Here is the method:
as §1, §2

The test system of assay [4] is Chenopodium album (CHEAL). Description: Glasshouse post-emergence phytotoxicity test, Chenopodium album (CHEAL). Here is the method:
as §1, §2

Assay [5] deals with Digitaria sanguinalis (DIGSA). Kind of assay: Glasshouse post-emergence phytotoxicity test, Digitaria sanguinalis (DIGSA). Here is the method:
as §1, §2

In assay [6] the test system is Amaranthus retroflexus (AMARE). Kind of assay: Glasshouse post-emergence phytotoxicity test, Amaranthus retroflexus (AMARE). As to the method: as §1, §2

Each structure is given as a SMILES string.

Take `COC(=O)[C@@H](C)O/N=C/c1cc(-n2c(=O)cc(C(F)(F)F)n(C)c2=O)c(F)cc1Cl` [A]: the Observed percentage phytotoxicity in the assay with Lolium perenne (LOLPE) (rate 0.078 g/ha) is reported as 3%; in the assay with Lolium perenne (LOLPE) (rate 0.156 g/ha) it was 0%; in the assay with Lolium perenne (LOLPE) (rate 0.313 g/ha), 5%; in assay [1] (rate 0.078 g/ha), 20%; in assay [1] (rate 0.313 g/ha) it was 68%; in assay [2] (rate 0.313 g/ha), 1%. Moreover, the Observed percentage phytotoxicity is recorded as 0% in assay [3] (rate 0.039 g/ha); 3% in assay [3] (rate 0.313 g/ha); 24% in assay [4] (rate 0.156 g/ha); 31% in assay [4] (rate 0.313 g/ha); 33% in assay [4] (rate 0.625 g/ha); 3% in assay [5] (rate 0.156 g/ha). Further, the Observed percentage phytotoxicity amounted to 9% in assay [5] (rate 0.313 g/ha), 39% in assay [6] (rate 0.078 g/ha) and 68% in assay [6] (rate 0.156 g/ha).
Take `COC(=O)CCNC(=O)C(C)Sc1cc(-n2c(=O)cc(C(F)(F)F)n(C)c2=O)c(F)cc1Cl` (stereo not drawn) [B-II]: the Observed percentage phytotoxicity in the assay with Lolium perenne (LOLPE) (rate 0.156 g/ha) was determined as 5%; in the assay on Lolium perenne (LOLPE) (rate 0.313 g/ha), 3%; in assay [1] (rate 0.156 g/ha), 18%; in assay [1] (rate 0.313 g/ha), 40%; in assay [4] (rate 0.078 g/ha), 15%; in assay [4] (rate 0.156 g/ha), 18%. In addition, the Observed percentage phytotoxicity stood at 18% in assay [4] (rate 0.313 g/ha), 8% in assay [5] (rate 0.313 g/ha) and 30% in assay [6] (rate 0.078 g/ha).
Consider `c1cc[n+]2c(c1)-c1cccc[n+]1CC2` [B-III], for which the figures for the Observed percentage phytotoxicity in assay [1] (rate 7.5 g/ha), in assay [4] (rate 15 g/ha) and in assay [6] (rate 3.75 g/ha) were 5%, 15% and 8%, respectively.
Take `C=CCOC(=O)C(C)(C)OC(=O)c1cc(-n2c(=O)cc(C(F)(F)F)n(C)c2=O)ccc1Cl` [B-I]: the Observed percentage phytotoxicity in the assay with Lolium perenne (LOLPE) (rate 0.039 g/ha) came out at 0%; in the assay on Lolium perenne (LOLPE) (rate 0.313 g/ha), 5%; in the assay with Lolium perenne (LOLPE) (rate 0.625 g/ha), 5%; in assay [2] (rate 0.625 g/ha), 5%; in assay [3] (rate 0.039 g/ha), 0%; in assay [3] (rate 0.625 g/ha), 8%. Besides, the Observed percentage phytotoxicity in assay [4] (rate 0.156 g/ha) was 20%; in assay [4] (rate 0.313 g/ha) it was 40%; in assay [5] (rate 0.156 g/ha) it was 5%; in assay [5] (rate 0.313 g/ha), 10%; in assay [5] (rate 0.625 g/ha), 15%; in assay [6] (rate 0.078 g/ha), 33%.
